Patent US20240425529A1, “BORIC ACID DERIVATIVE” (SHOUYAO HOLDINGS (BEIJING) CO., LTD., priority 2021, published 2024)

Columns and labels:
LMP7 [1] = target: T1, LMP7 (Homo sapiens, UniProt P28062); assay: Enzymatic inhibitory activity on LMP7 (MOLT-4 cell lysate, Ac-ANW-AMC substrate); format: biochemical; conditions: 1 hour pre-incubation
T1 construct: using MOLT-4 cell lysate as the enzyme source of LMP7; endogenous in cells; host or cells: MOLT-4 (human acute lymphoblastic leukemia cells)
Method in brief: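 Enzyme source was MOLT-4 cell lysate (20 ng/μl final) in 20 mM Tris pH 8.0, 0.5 mM EDTA, preincubated 1 h at 23 °C with compound at 9 final concentrations (0–2000 nM). Ac-ANW-AMC ([…]) was then added, 2 h at 23 °C in the dark. AMC fluorescence (ex 345/em 445 nm) gave the IC50.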

LMP7 [2] = target: T1, LMP7; assay: Cytological inhibitory activity on LMP7 in MOLT-4 cells; format: cell-based; conditions: incubation for 2 hours with compound, read-out: Cytological activity data LMP7 Activity (MOLT-4Cell)
Method in brief: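 MOLT-4 cells pre-incubated 2 h with compound (8 concentrations, 5-fold dilution series from 2 mM DMSO stock, 5% FBS), washed and lysed. Lysate (20 ng/μl, 2× stock) reacted with Ac-ANW-AMC (100 μM, 2× stock) in 20 mM Tris pH 8.0, 0.5 mM EDTA, 1 h, 23 °C. Fluorescence at 345/445 nm; IC50 fitted.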

| IC50 (LMP7 [1]) | IC50 (LMP7 [2]) | Compound |
| --- | --- | --- |
| 9.64 nM | 3.77 nM | O=C(Nc1ccccn1)C(=O)N[C@@H](Cc1coc2ccccc12)B(O)O [Ex. 12] |
| 3.53 nM | 1.58 nM | O=C(Nc1nc2ccccc2s1)C(=O)N[C@@H](Cc1coc2ccccc12)B(O)O [Ex. 27, (R)-(2-(benzofuran-3-yl)-1-(2-oxo-2-((benzo[d]thiazol-2-yl)amino)acetamido)ethyl)boronic acid] |
| 4.6 nM | 1.72 nM | Cc1cnc(NC(=O)C(=O)N[C@@H](Cc2coc3ccccc23)B(O)O)s1 [Ex. 32, (R)-(2-(benzofuran-3-yl)-1-(2-oxo-2-((5-methylthiazol-2-yl)amino)acetamido)ethyl)boronic acid] |
| 1.51 nM | 1.9 nM | O=C(Nc1cc(Cl)ccn1)C(=O)N[C@@H](Cc1coc2ccccc12)B(O)O [Ex. 49, (R)-(2-(benzofuran-3-yl)-1-(2-oxo-2-((4-chloropyridin-2-yl)amino)acetamido)ethyl)boronic acid] |

| Compound | IC50 (LMP7 [1]) | IC50 (LMP7 [2]) |
| --- | --- | --- |
| O=C(Nc1cnccn1)C(=O)N[C@@H](Cc1coc2ccccc12)B(O)O [Ex. 9, (R)-(2-(benzofuran-3-yl)-1-(2-oxo-2-(pyrazin-2-ylamino)acetamido)ethyl) boronic acid] | 9.02 nM | 4.82 nM |
| CC1CC(C)(C)OB([C@H](Cc2coc3ccccc23)NC(=O)C(=O)Nc2cnccn2)O1 (some centres unmarked) [Ex. 67] | 1.59 nM | 0.79 nM |
| O=C1COB([C@H](Cc2coc3ccccc23)NC(=O)C(=O)Nc2cnccn2)O1 [Ex. 73] | 1.23 nM | 1.15 nM |
